In patent publication US12514928B2, “Herboxidiene antibody-drug conjugates and methods of use” (Eisai R&D Management Co., Ltd., priority 2018, dated 2026):
Where two headings read alike, the source gives them in different places.

How the values were obtained:
[1] = tested on: HCC1954 breast cancer cells; assay: Payload cell viability dose response (CellTiter-Glo 2.0), HCC1954 (Example 4); assay type: cell-based, human; conditions: for GI50: Homo sapiens
Procedure: (§1) Cell viability dose response was determined for exemplary payload compounds in HER2-amplified HCC1954 breast cancer cells and NCI-N87 gastric cancer cells.
(§2) HCC1954 (American Type Culture Collection (ATCC)) breast ductal carcinoma or NCI-N87 (ATCC) gastric carcinoma cells were plated at 500 cells/well in flat bottom 384-well tissue culture plates (Corning) in a total volume of 30 μL tissue culture medium supplemented with 10% fetal bovine serum (ThermoFisher Scientific). Cells were treated with a 4-fold serial dilution of compound from 10000 nM to 0.01 nM. Each concentration was tested in triplicate. At the time of treatment, a plate of untreated cells was evaluated using CellTiter-Glo® 2.0 Luminescent Cell Viability Assay according to the manufacturer's recommendations (Promega; #G9241). CellTiter-Glo® 2.0 reagent was added to the medium, incubated, and assayed on an EnVision Multilabel Reader (PerkinElmer). Values represent time zero (T0). The number of viable cells following 72 (T72) or 144 hours (T144) of compound treatment was also determined using the CellTiter-Glo®2.0 Luminescent Cell Viability Assay. Using the luminescence value at time zero (T0), DMSO control growth (C), and test growth in the presence of compound (T72 or T144), the percentage growth was calculated at each of the compound concentrations levels. Percentage growth inhibition was calculated as (e.g.): [(T144−T0)/(C−T0)]×100 for concentrations for which T144>/=T0 or [(T144−T0)/T0]×100 for concentrations for which T144<T0. The dose response curve plots were generated using Prism 8 (Graphpad) and fit using nonlinear regression analysis and the log(inhibitor) versus response-variable slope (four parameters).

[2] = tested on: NCI-N87 gastric cancer cells; assay: Payload cell viability dose response (CellTiter-Glo 2.0), NCI-N87 (Example 4); assay type: cell-based, human; conditions: for GI50: Homo sapiens
Procedure: as §1, §2

[3] = tested on: SLC25A19 mature transcript; assay: In-cell splicing PD assay, HCC1954; assay type: cell-based; conditions: Homo sapiens, HCC1954, 6 h
Procedure: (§3) 4.1.2 In-Cell Splicing PD Assay
(§4) Splicing of the SLC25A19 mature transcript was also examined in HCC1954 and NCI-N87 cells treated with increasing concentrations of exemplary payload compounds.
(§5) HCC1954 or NCI-N87 cells (ATCC) were plated in RPM1+10% FBS media (ATCC) at 1000 cells per well at 20 μL per well. Cells were treated with compounds in a 4-fold dilution dose-response. After 6 hours, cells were PBS washed and lysed with 30 μL of CL buffer (IgePal CA-630, 5M NaCl, 1M Tris HCl 1M pH 7.4 in water) containing 25 μL/mL of RNAsin (Promega) and incubated for 20 min at RT on a rocker. Resulting mixture (1 μL) was used to assess splicing modulation in a Taqman Fast Virus 1-Step MasterMix (Applied Biosystems) reverse transcription PCR reaction with the following Taqman primers according to the manufacturer's recommendations: SLC25A19 (Invitrogen, Hs00222265_m1); RPLPO (Invitrogen, Hs99999902_m1).

[4] = tested on: SLC25A19 mature transcript; assay: In-cell splicing PD assay, NCI-N87; assay type: cell-based; conditions: Homo sapiens, NCI-N87, 6 h
Procedure: as §3, §4, §5

[5] = HCC1954, 72 h, read-out: CTG 72 h GI50
[6] = HCC1954, 144 h, read-out: CTG 144 h GI50
[7] = NCI-N87, 72 h, read-out: CTG 72 h GI50
[8] = NCI-N87, 144 h, read-out: CTG 144 h GI50

Compound | CTG 72 h LD50 ([1]; HCC1954, 72 h) [µM] | CTG 72 h Rmin ([1]; HCC1954, 72 h) [%] | CTG 144 h LD50 ([1]; HCC1954, 144 h) [nM] | CTG 144 h Rm in ([1]; HCC1954, 144 h) [%] | GI50 [1, 5] [nM] | GI50 [1, 6] [nM] | GI50 [2, 7] [nM] | GI50 [2, 8] [nM] | CTG 72 h LD50 ([2]; NCI-N87, 72 h) [µM] | CTG 72 h Rmin ([2]; NCI-N87, 72 h) [%] | CTG 144 h LD50 ([2]; NCI-N87, 144 h) [nM] | CTG 144 h Rmin ([2]; NCI-N87, 144 h) [%] | IC50 [3] [nM] | IC50 [4] [nM]
CO[C@H]([C@@H](C)[C@H]1O[C@]1(C)C[C@H](C)/C=C/C=C(\C)[C@H]1O[C@@H](CC(=O)N[C@@H](COC(=O)N2CCN(C)CC2)C(=O)O)CC[C@@H]1C)[C@@H](C)O [Compound H13] | > 10 | −54.164 | 690.614 | −97.151 | 190 | 210 | 53.9 | 115 | > 10 | −15.164 | 2784.969 | −80.613 | 320 | 108
CO[C@H]([C@@H](C)[C@H]1O[C@]1(C)C[C@H](C)/C=C/C=C(\C)[C@H]1O[C@@H](CC(=O)N[C@@H](CCOC(=O)N2CCN(C)CC2)C(=O)O)CC[C@@H]1C)[C@@H](C)O [Compound H14] | > 10 | −42.359 | 2055.923 | −95.522 | 626 | 682 | 415 | 730 | > 10 | −2.467 | 7944.263 | −63.41 | 1350 | 962
CO[C@H]([C@@H](C)[C@H]1O[C@]1(C)C[C@H](C)/C=C/C=C(\C)[C@H]1O[C@@H](CC(=O)N[C@@H](CCNC(=O)N2CCN(C)CC2)C(=O)O)CC[C@@H]1C)[C@@H](C)O [Compound H15] | > 10 | −44.191 | 31.77 | −95.522 | 18.1 | 11.7 | 6 | 3.5 | > 10 | −18.031 | 106.186 | −82.661 | 37.1 | 15.4
COC(=O)[C@H](CCNC(=O)N1CCN(C)CC1)NC(=O)C[C@H]1CC[C@H](C)[C@@H](/C(C)=C/C=C/[C@@H](C)C[C@@]2(C)O[C@@H]2[C@H](C)[C@@H](OC)[C@@H](C)O)O1 [Compound H16] | > 10 | −65.968 | 22.316 | −98.779 | 11.8 | 8.98 | 6.76 | 3.62 | > 10 | −21.717 | 98.186 | −86.757 | 16.7 | 8.55
CO[C@H]([C@@H](C)[C@H]1O[C@]1(C)C[C@H](C)/C=C/C=C(\C)[C@H]1O[C@@H](CC(=O)N[C@@H](CCCOC(=O)N2CCN(C)CC2)C(=O)O)CC[C@@H]1C)[C@@H](C)O [Compound H17] | > 10 | −48.872 | 275.218 | −96.54 | 139 | 126 | 47 | 81.3 | > 10 | −15.164 | 912.895 | −65.458 | 135 | 114
CO[C@H]([C@@H](C)[C@H]1O[C@]1(C)C[C@H](C)/C=C/C=C(\C)[C@H]1O[C@@H](CC(=O)N[C@H](CCCOC(=O)N2CCN(C)CC2)C(=O)O)CC[C@@H]1C)[C@@H](C)O [Compound H18] | > 10 | −20.785 | 1606.048 | −88.195 | 624 | 436 | 300 | 313 | > 10 | −12.297 | 3937.618 | −60.543 | 1680 | 464
CO[C@H]([C@@H](C)[C@H]1O[C@]1(C)C[C@H](C)/C=C/C=C(\C)[C@H]1O[C@@H](CC(=O)NCCCC[C@@H](NC(=O)N2CCN(C)CC2)C(=O)O)CC[C@@H]1C)[C@@H](C)O [Compound H19] | > 10 | 32.813 | > 10000 | 27.17 | 8990 | 7930 | > 10000 | 3270 | > 10 | 44.396 | > 10000 | 17.442 | > 10000 | > 10000
COC(=O)[C@@H](CCCCNC(=O)C[C@H]1CC[C@H](C)[C@@H](/C(C)=C/C=C/[C@@H](C)C[C@@]2(C)O[C@@H]2[C@H](C)[C@@H](OC)[C@@H](C)O)O1)NC(=O)N1CCN(C)CC1 [Compound H20] | > 10 | −44.802 | 98.861 | −94.301 | 40.4 | 36.4 | 29.4 | 21 | > 10 | −62.676 | 532.734 | −94.539 | 51.4 | 56.2
